Assay results taken from patent US9617310B2 (priority 2013, dated 2017).

Assays:
[1] = target: T1, NS3 genotype 1b protease (Hepatitis C virus genotype 1b, UniProt Q9WMX2, E1202G); experiment: Ki determination, NS3 protease genotype 1b (fluorogenic depsipeptide substrate); type: biochemical; details: NS3 protease domain genotype 1b, NS4A peptide
T1 construct: Purified NS3 protease domain (amino acids 1-181) of the genotype 1b and 3a virus were generated as above; K3 hexahistidine tag (N); rTEV protease cleavage site (N); made in house; host or cells: E. coli BL21AI
T1 sequence (Q9WMX2 1027-1207 E1202G, other chains not shown): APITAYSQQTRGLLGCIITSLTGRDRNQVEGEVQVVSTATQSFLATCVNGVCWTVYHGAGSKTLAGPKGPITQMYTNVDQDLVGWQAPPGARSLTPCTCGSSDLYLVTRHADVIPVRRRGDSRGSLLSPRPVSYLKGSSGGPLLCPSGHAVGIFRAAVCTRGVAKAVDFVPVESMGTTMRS
From the text: Ki Determination for Genotypes 1b and 3a NS3 Protease.
Purified NS3 protease domain (amino acids 1-181) of the genotype 1b and 3a virus were generated as above. The internally quenched fluorogenic depsipeptide substrate Ac-DED(Edans)-EEAbuψ[COO]ASK(Dabcyl)-NH2 and a synthetic peptide containing the hydrophobic core residues of the NS4A protein cofactor ([…]; NS4A peptide) were obtained from Anaspec, Inc. (San Jose, Calif.). Other chemicals and biochemicals were of reagent grade or better and were purchased from standard suppliers.
Reactions were run at room temperature in buffer consisting of 50 mM HEPES, 40% glycerol, 0.05% Triton X-100, 10 mM DTT, and 10% DMSO. The final assay solutions contained 50 pM NS3 genotype 1b protease or 200 pM genotype 3a protease, 20 μM NS4A peptide, and 4 μM substrate (genotype 1b) or 2 μM substrate (genotype 3a). Inhibitor concentrations varied from 100 nM to 5 pM in 3-fold dilutions, and no-inhibitor controls were included.
Compound dilutions were made in DMSO at 20× final concentration. Reaction mixtures were prepared in 96-well assay plates. A solution of enzyme and NS4A peptide in assay buffer (25 μL volume with both reagents at 4× final concentration) was mixed with 45 μL assay buffer and 5 μL of either inhibitor or DMSO, and pre-incubated at room temperature for 1 hour. The reaction was started by addition of 25 μL substrate solution at 4× final concentration. Plates were mixed vigorously for 5-10 seconds and reactions were allowed to proceed for 90 minutes. Fluorescence was measured every 30 s between 90 and 120 minutes reaction time using a Tecan InfiniTe M1000 or PerkinElmer Envision multimode plate reader with an excitation wavelength of 340 nm and an emission wavelength of 490 nm.
Rates were calculated from the progress curves at steady state, in the time frame of 90-120 minutes after addition of substrate. To determine the Ki, rates were plotted as a function of inhibitor concentration, and the data were fit with equation 1 (Morrison, J. F., Biochimica et Biophysica Acta 1969, 185, 269-286) to calculate Ki^app using GraphPad Prism 5. Active fraction of enzyme was determined by active site titration with known potent inhibitors. Ki was calculated from Ki^app/(1+[[S]/Km]).

[2] = tested on: NS3/4a protease inhibitor resistant variant R155K in genotype 1a transient HCV replicon; experiment: Transient-transfected HCV replicon, genotype 1a R155K; type: cell-based; details: Hepatitis C virus, 72 h, read-out: EC50 1A R155K
[3] = tested on: genotype 3a transient HCV replicon (S52) in Huh-7-derived cells; experiment: Transient-transfected HCV replicon, genotype 3a wild type; type: cell-based; details: Hepatitis C virus; transient-transfected replicon genotype 3a wild type, 72 h; read-out: EC50 3A WT
[4] = tested on: NS3/4a protease inhibitor resistant variant D168A in genotype 1b transient HCV replicon; experiment: Transient-transfected HCV replicon, genotype 1b D168A; type: cell-based; details: Hepatitis C virus, 72 h, read-out: EC50 1B D168A
[5] = tested on: genotype 1b stable HCV replicon (Con1) in Huh-7-derived cells; experiment: Stable subgenomic HCV replicon, genotype 1b, Renilla luciferase; type: cell-based; details: Hepatitis C virus, stable replicon genotype 1b, 72 h, read-out: EC50 1B RLUC
Method: (§1) Antiviral potency (EC50) was determined in both stable subgenomic HCV replicon cell lines and transient-transfected HCV replicon cells. The term half maximal effective concentration (EC50) refers to the concentration of a drug which induces a response halfway between the baseline and maximum after the exposure time specified below.
(§2) Stable subgenomic HCV replicons for genotype 1a, 1b, 2a, 3a, and 4a were established in Huh-7-derived cells as described by Lohmann et al (Lohmann V, Korner F, Koch J, et al Replication of subgenomic hepatitis C virus RNAs in a hepatoma cell line. Science 1999; 285:119-3). Each stable cell line contains a bicistronic HCV replicon that encodes a humanized Renilla luciferase (hRLuc) reporter gene fused to a selectable neomycin-resistance gene, followed by an EMCV IRES and the NS3-NS5B coding region of HCV. […] Luciferase activity was measured as a marker for intracellular HCV replication levels.
(§3) The genotype 1a stable replicon was derived from the H77 HCV strain and contained adaptive mutations P1496L and S2204I. The genotype 1b stable replicon was derived from the Con1 HCV strain and contained adaptive mutations E1202G, T1280I, and K1846T. […] The genotype 3a stable replicon was derived from the S52 HCV strain and contained adaptive mutations P1121 L, A1198T and S2210I (equivalent to S2204I in genotype 1). The genotype 4a stable replicon was derived from the ED43 HCV strain and contained adaptive mutations Q1691R and S2204I. All replicon cell lines were propagated in Huh-7-derived cells and maintained in Dulbecco's modified Eagle's Medium (DMEM) supplemented with 10% fetal bovine serum (FBS) and 0.5 mg/ml G418.
(§4) To perform EC50 assays, cells from each HCV replicon were dispensed into 384-well plates. Compounds were dissolved in DMSO at a concentration of 10 mM and diluted in DMSO using an automated pipetting instrument. Three-fold serially diluted compounds were directly added to the cells using an automated instrument. DMSO was used as a negative (solvent; no inhibition) control, and a combination of three HCV inhibitors including a protease inhibitor; an NS5A inhibitor and a nucleoside inhibitor was used at concentrations >100×EC50 as a positive control (100% inhibition). Seventy-two hours later, cells were lysed and Renilla luciferase activity were quantified as recommended by the manufacturer (Promega-Madison, Wis.). Non-linear regression was performed to calculate […], values.

[6] = tested on: genotype 2a stable HCV replicon (JFH-1) in Huh-7-derived cells; experiment: Stable subgenomic HCV replicon, genotype 2a, Renilla luciferase; type: cell-based; details: Hepatitis C virus, stable replicon genotype 2a, 72 h, read-out: EC50 2A RLUC
Method: as §1, §2, §3, §4

Structure (SMILES)	Ki [1] [nM]	EC50 [2] [nM]	EC50 [3] [nM]	EC50 [4] [nM]	EC50 [5] [nM]	EC50 [6] [nM]
COc1ccc2nc3c(nc2c1)O[C@@H]1C[C@@H](C(=O)N[C@]2(C(=O)NS(=O)(=O)C4CC4)C[C@H]2C(F)F)N(C1)C(=O)[C@H](C(C)(C)C)NC(=O)O[C@H]1[C@H](CCCCC3)C[C@H]2C[C@H]21 [Example 7, (1aR,1bS,5S,8S,10R,22aR,23aR)-5-tert-butyl-N-[(1R,2R)-1-[(cyclopropylsulfonyl)carbamoyl]-2-(difluoromethyl)cyclopropyl]-14-methoxy-3,6-dioxo-1a,1b,3,4,5,6,9,10,18,19,20,21,22,22a,23,23a-hexadecahydro-1H,8H-7,10-methanocyclopropa[3′,40]cyclopenta[1′,2′:18,19][1,10,3,6]dioxadiazacyclononadecino[11,12-b]quinoxaline-8-carboxamide]	0.05	180	928	1070	82	199
CC(C)(C)[C@@H]1NC(=O)O[C@@H]2C[C@@H]3C[C@@H]3[C@H]2CCCCC(F)(F)c2nc3ccccc3nc2O[C@@H]2C[C@@H](C(=O)N[C@]3(C(=O)NS(=O)(=O)C4CC4)C[C@H]3C(F)F)N(C2)C1=O [Example 18]	0.01	2.6	4.9	2.6	4.1	2.6
CC(C)(C)[C@@H]1NC(=O)O[C@@H]2C[C@@H]3C[C@@H]3[C@H]2CCCCC(F)(F)c2nc3ccc(OC(F)F)cc3nc2O[C@@H]2C[C@@H](C(=O)N[C@]3(C(=O)NS(=O)(=O)C4CC4)C[C@H]3C(F)F)N(C2)C1=O [Example 16, (1aS,2aR,6S,9S,11R,23aR,23bS)-6-tert-butyl-N-[(1R,2R)-1-[(cyclopropylsulfonyl)carbamoyl]-2-(difluoromethyl)cyclopropyl]-15-(difluoromethoxy)-19,19-difluoro-4,7-dioxo-1a,2,2a,4,5,6,7,10,11,19,20,21,22,23,23a,23b-hexadecahydro-1H,9H-8,11-methanocyclopropa[4′,5′]cyclopenta [1′,2′:18,19][1,10,3,6]dioxadiazacyclononadecino[11,12-b]quinoxaline-9-carboxamide]	0.03	2	50	7.9	4.2	2.3
COc1ccc2nc3c(nc2c1)O[C@@H]1C[C@@H](C(=O)N[C@]2(C(=O)NS(=O)(=O)C4(C)CC4)C[C@H]2C(F)F)N(C1)C(=O)[C@H](C(C)(C)C)NC(=O)O[C@@H]1C[C@@H]2C[C@@H]2[C@H]1CCCCC3 [Example 2, (1aS,2aR,6S,9S,11R,23aR,23bS)-6-tert-butyl-N-[(1R,2R)-2-(difluoromethyl)-1-{[(1-methylcyclopropyl)sulfonyl]carbamoyl}cyclopropyl]-15-methoxy-4,7-dioxo-1a,2,2a,4,5,6,7,10,11,19,20,21,22,23,23a,23b-hexadecahydro-1H,9H-8,11-methanocyclopropa[4′,5′]cyclopenta[1′,2′18,19][1,10,3,6]dioxadiazacyclononadecino[11,12-b]quinoxaline-9-carboxamide]	0.02	1.4	5.1	3.2	1	1.82
COc1ccc2nc3c(nc2c1)O[C@@H]1C[C@@H](C(=O)N[C@]2(C(=O)NS(=O)(=O)C4(C)CC4)C[C@H]2CC(F)F)N(C1)C(=O)[C@H](C(C)(C)C)NC(=O)O[C@@H]1C[C@@H]2C[C@@H]2[C@H]1CCCCC3(F)F [Example 20, (1aS,2aR,6S,9S,11R,23aR,23bS)-6-tert-butyl-N-[(1R,2S)-2-(2,2-difluoroethyl)-1-{[(1-methylcyclopropyl)sulfonyl]carbamoyl}cyclopropyl]-19,19-difluoro-15-methoxy-4,7-dioxo-1a,2,2a,4,5,6,7,10,11,19,20,21,22,23,23a,23b-hexadecahydro-1H,9H-8,11-methanocyclopropa[4′,5′]cyclopenta[1′,2′:18,19][1,10,3,6]dioxadiazacyclononadecino[11,12-b]quinoxaline-9-carboxamide]	0.04	5	12	6.3	5.9	5
COc1ccc2nc3c(nc2c1)O[C@@H]1C[C@@H](C(=O)N[C@]2(C(=O)NS(=O)(=O)C4(C)CC4)C[C@H]2C(F)F)N(C1)C(=O)[C@H](C(C)(C)C)NC(=O)O[C@@H]1C[C@@H]2C[C@@H]2[C@H]1CCCCC3(F)F [Example 10, (1aS,2aR,6S,9S,11R,23aR,23bS)-6-tert-butyl-N-[(1R,2R)-2-(difluoromethyl)-1-{[(1-methylcyclopropyl)sulfonyl]carbamoyl}cyclopropyl]-19,19-difluoro-15-methoxy-4,7-dioxo-1a,2,2a,4,5,6,7,10,11,19,20,21,22,23,23a,23b-hexadecahydro-1H,9H-8,11-methanocyclopropa [4′,5′]cyclopenta[1′,2′:18,19][1,10,3,6]dioxadiazacyclononadecino[11,12-b]quinoxaline-9-carboxamide]	0.02	1.3	2.3	1	1.4	1.6
CC(C)(C)[C@@H]1NC(=O)O[C@@H]2C[C@@H]3C[C@@H]3[C@H]2CCCCC(F)(F)c2nc3ccccc3nc2O[C@@H]2C[C@@H](C(=O)N[C@]3(C(=O)NS(=O)(=O)C4(C)CC4)C[C@H]3C(F)F)N(C2)C1=O [Example 17]	0.01	2.9	7.1	2.7	4.7	2.7
COc1ccc2nc3c(nc2c1)O[C@@H]1C[C@@H](C(=O)N[C@]2(C(=O)NS(=O)(=O)C4CC4)C[C@H]2C(F)F)N(C1)C(=O)[C@H](C(C)(C)C)NC(=O)O[C@@H]1[C@H]2CC[C@H](C2)[C@H]1CCCCC3 [Example 4, (1R,4S,4aR,8S,11S,13R,25aR)-8-tert-butyl-N-[(1R,2R)-1-[(cyclopropylsulfonyl)carbamoyl]-2-(difluoromethyl)cyclopropyl]-17-methoxy-6,9-dioxo-2,3,4,4a,6,7,8,9,12,13,21,22,23,24,25,25a-hexadecahydro-1H,11H-1, 4:10,13-dimethanoquinoxalino[2,3-k][1,10,3,6]benzodioxadiazacyclononadecine-11-carboxamide]	0.02	27	63	112	2.6	18
